Counter-ions that a name gives are not always drawn.
What follows are compounds tested on Acinetobacter baumannii ATCC17961 (assay: Antimicrobial susceptibility testing: 90% growth inhibitory concentration (IC90) determination in Iso-Sensitest broth, OD600 growth). Conditions: Acinetobacter baumannii, ATCC17961, 16 h, read-out: A. baumannii ATCC 17961 IC90 (uM), strain ATCC 17961, OD600 growth over 16 h.
Assay type: cell-based
How it was run: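 Growth inhibition is calculated during the logarithmic phase from OD600 readings taken every 20 minutes across 16 h at 35±2° C. Bacteria at ~5×10^(5) CFU/ml face twofold dilution series (e.g. 50 to 0.097 μM final).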

| Compound | IC90 |
| --- | --- |
| N[C@H]1C[C@H]1C(=O)N1CCN(C(=O)c2ccc(Nc3nccn4c(-c5c[nH]nc5C(F)(F)F)cnc34)cc2Cl)CC1 [Example 225, [4-[(1R,2S)-2-aminocyclopropanecarbonyl]piperazin-1-yl]-[2-chloro-4-[[3-[3-(trifluoromethyl)-1H-pyrazol-4-yl]imidazo[1,2-a]pyrazin-8-yl]amino]phenyl] methanone formate] | 1.81 µM |
| CCc1cc(Nc2nccn3c(-c4cn(CC#N)nc4C(F)(F)F)cnc23)ccc1C(=O)NOCCN [Example 228, N-(2-aminoethoxy)-4-[[3-[1-(cyanomethyl)-3-(trifluoromethyl)pyrazol-4-yl]imidazo[1,2-a]pyrazin-8-yl]amino]-2-ethylbenzamide formate] | 0.409 µM |
| CCc1cc(Nc2nccn3c(-c4c[nH]nc4C(F)(F)F)cnc23)ccc1C(=O)NCCN [Example 229, N-(2-aminoethyl)-2-ethyl-4-[[3-[3-(trifluoromethyl)-1H-pyrazol-4-yl]imidazo[1,2-a]pyrazin-8-yl]amino]benzamide formate] | 1.1 µM |
| C#CC(C)n1cc(-c2cnc3c(Nc4ccc(C(=O)NCCOCCN)c(CC)c4)nccn23)c(C(F)(F)F)n1 (centres unmarked) [Example 232, N-[2-(2-aminoethoxy)ethyl]-4-[[3-[1-but-3-yn-2-yl-3-(trifluoromethyl)pyrazol-4-yl]imidazo[1,2-a]pyrazin-8-yl]amino]-2-ethylbenzamide formate] | 0.124 µM |
| CCc1cc(Nc2nccn3c(-c4cn(C5COC5)nc4C(F)(F)F)cnc23)ccc1C(=O)NCCOCCN [Example 241, N-[2-(2-aminoethoxy)ethyl]-2-ethyl-4-[[3-[1-(oxetan-3-yl)-3-(trifluoromethyl)pyrazol-4-yl]imidazo[1,2-a]pyrazin-8-yl]amino]benzamide formate] | 0.322 µM |

Same assay, conditions: Acinetobacter baumannii, ATCC17961, 16 h, strain ATCC 17961, OD600 growth over 16 h, read-out: A. baumannii ATCC 17961 IC90

| IC90 | Compound |
| --- | --- |
| 0.091 µM | CCNC(=O)c1ccc(Nc2nccn3c(-c4cn(CC#N)nc4C(F)(F)F)cnc23)cc1Cl [Example 230, 2-chloro-4-[[3-[1-(cyanomethyl)-3-(trifluoromethyl)pyrazol-4-yl]imidazo[1,2-a]pyrazin-8-yl]amino]-N-ethylbenzamide] |
| 0.102 µM | N#CCNC(=O)c1ccc(Nc2nccn3c(-c4cn(CC#N)nc4C(F)(F)F)cnc23)cc1Cl [Example 231, 2-chloro-N-(cyanomethyl)-4-[[3-[1-(cyanomethyl)-3-(trifluoromethyl)pyrazol-4-yl]imidazo[1,2-a]pyrazin-8-yl]amino]benzamide] |
| 0.193 µM | N#CCn1cc(-c2cnc3c(Nc4ccc(C(=O)N5CC(O)C5)c(Cl)c4)nccn23)c(C(F)(F)F)n1 [Example 236, 2-[4-[8-[3-chloro-4-(3-hydroxyazetidine-1-carbonyl)anilino]imidazo[1,2-a]pyrazin-3-yl]-3-(trifluoromethyl)pyrazol-1-yl]acetonitrile] |
| 0.33 µM | CC1(O)CN(C(=O)c2ccc(Nc3nccn4c(-c5cn(CC#N)nc5C(F)(F)F)cnc34)cc2Cl)C1 [Example 242, 2-[4-[8-[3-chloro-4-(3-hydroxy-3-methylazetidine-1-carbonyl)anilino]imidazo[1,2-a]pyrazin-3-yl]-3-(trifluoromethyl)pyrazol-1-yl]acetonitrile] |

The next lines start with the compound.

| Compound | IC90 |
| --- | --- |
| N#CCn1cc(-c2cnc3c(Nc4ccc(C(=O)N5CCNCC5)c(Cl)c4)nccn23)c(C(F)(F)F)n1 [Example 226, 2-[4-[8-[3-chloro-4-(piperazine-1-carbonyl)anilino]imidazo[1,2-a]pyrazin-3-yl]-3-(trifluoromethyl)pyrazol-1-yl]acetonitrile] | 0.088 µM |
| CCc1cc(Nc2nccn3c(-c4cn(CC#N)nc4C(F)(F)F)cnc23)ccc1C(=O)NCCCCCCN [Example 227, N-(6-aminohexyl)-4-[[3-[1-(cyanomethyl)-3-(trifluoromethyl)pyrazol-4-yl]imidazo[1,2-a]pyrazin-8-yl]amino]-2-ethylbenzamide] | 0.17 µM |
| N#CCn1cc(-c2cnc3c(Nc4ccc(C(=O)N5CC[C@H](O)C5)c(Cl)c4)nccn23)c(C(F)(F)F)n1 [Example 243, 2-[4-[8-[3-chloro-4-[(3S)-3-hydroxypyrrolidine-1-carbonyl]anilino]imidazo[1,2-a]pyrazin-3-yl]-3-(trifluoromethyl)pyrazol-1-yl]acetonitrile] | 0.384 µM |
| N#CCn1cc(-c2cnc3c(Nc4ccc(C(=O)N5CC[C@@H](O)C5)c(Cl)c4)nccn23)c(C(F)(F)F)n1 [Example 244, 2-[4-[8-[3-chloro-4-[(3R)-3-hydroxypyrrolidine-1-carbonyl]anilino]imidazo[1,2-a]pyrazin-3-yl]-3-(trifluoromethyl)pyrazol-1-yl]acetonitrile] | 0.411 µM |

Same assay, conditions: strain ATCC 17961, OD600 growth over 16 h, read-out: A. baumannii ATCC 17961 IC90

| Compound | IC90 |
| --- | --- |
| N[C@@H]1CC[C@H](NC(=O)N2CCN(C(=O)c3ccc(Nc4nccn5c(-c6c[nH]nc6C(F)(F)F)cnc45)cc3Cl)CC2)C1 [Example 233, N-[(1S,3R)-3-aminocyclopentyl]-4-[2-chloro-4-[[3-[3-(trifluoromethyl)-1H-pyrazol-4-yl]imidazo[1,2-a]pyrazin-8-yl]amino]benzoyl] piperazine-1-carboxamide formate] | 0.169 µM |
| N#CCn1cc(-c2cnc3c(Nc4ccc(C(=O)NCCO)c(Cl)c4)nccn23)c(C(F)(F)F)n1 [Example 234, 2-chloro-4-[[3-[1-(cyanomethyl)-3-(trifluoromethyl)pyrazol-4-yl]imidazo[1,2-a]pyrazin-8-yl]amino]-N-(2-hydroxyethyl) benzamide] | 0.189 µM |
| C[C@@H](O)CNC(=O)c1ccc(Nc2nccn3c(-c4cn(CC#N)nc4C(F)(F)F)cnc23)cc1Cl [Example 237, 2-chloro-4-[[3-[1-(cyanomethyl)-3-(trifluoromethyl)pyrazol-4-yl]imidazo[1,2-a]pyrazin-8-yl]amino]-N-[(2R)-2-hydroxypropyl] benzamide] | 0.196 µM |
| N[C@H]1CC[C@@H](NC(=O)N2CCN(C(=O)c3ccc(Nc4nccn5c(-c6c[nH]nc6C(F)(F)F)cnc45)cc3Cl)CC2)C1 [Example 238, N-[(1R,3S)-3-aminocyclopentyl]-4-[2-chloro-4-[[3-[3-(trifluoromethyl)-1H-pyrazol-4-yl]imidazo[1,2-a]pyrazin-8-yl]amino]benzoyl] piperazine-1-carboxamide formate] | 0.2 µM |
| COCCNC(=O)c1ccc(Nc2nccn3c(-c4cn(CC#N)nc4C(F)(F)F)cnc23)cc1Cl [Example 239, 2-chloro-4-[[3-[1-(cyanomethyl)-3-(trifluoromethyl)pyrazol-4-yl]imidazo[1,2-a]pyrazin-8-yl]amino]-N-(2-methoxyethyl) benzamide] | 0.211 µM |
| C[C@H](O)CNC(=O)c1ccc(Nc2nccn3c(-c4cn(CC#N)nc4C(F)(F)F)cnc23)cc1Cl [Example 240, 2-chloro-4-[[3-[1-(cyanomethyl)-3-(trifluoromethyl)pyrazol-4-yl]imidazo[1,2-a]pyrazin-8-yl]amino]-N-[(2S)-2-hydroxypropyl] benzamide] | 0.253 µM |
| N[C@@H]1CN[C@@H](C(=O)N2CCN(C(=O)c3ccc(Nc4nccn5c(-c6c[nH]nc6C(F)(F)F)cnc45)cc3Cl)CC2)C1 [Example 245, [4-[(2R,4S)-4-aminopyrrolidine-2-carbonyl]piperazin-1-yl]-[2-chloro-4-[[3-[3-(trifluoromethyl-1H-pyrazol-4-yl]imidazo[1,2-a]pyrazin-8-yl]amino]phenyl]methanone formate] | 0.45 µM |

Source: patent US20230203043A1, “NOVEL IMIDAZOPYRAZINE DERIVATIVES” (Hoffmann-La Roche Inc., priority 2020, published 2023)
